The target of experiment [1] is Aldo-keto reductase family 1 member B1 (Bos taurus) (UniProt P16116). Kind of experiment: In vitro % decrease of aldose reductase measured in isolated partially purified bovine lens preparations at 10e-7 M concentration.
The test system of experiment [2] is Rattus norvegicus. Put plainly: In vivo inhibition of galactitol accumulation in diaphragm of rat at 28 mg/kg/day. It is filed as functional.
For experiment [3], the system named is Rattus norvegicus. Kind of experiment: In vivo inhibition of galactitol accumulation in sciatic nerves of rat at 28 mg/kg/day. It is filed as functional. The settings on record: Sciatic nerve.
Experiment [4] deals with Rattus norvegicus. Put plainly: In vivo inhibition of galactitol accumulation in diaphragm of rat at 49 mg/kg. The format is functional.
For experiment [5], the system named is Rattus norvegicus. Put plainly: In vivo inhibition of galactitol accumulation in sciatic nerves of rat at 26 mg/kg/day. The format is functional. The note with it: Sciatic nerve.
Experiment [6] has as its system Rattus norvegicus. Kind of experiment: In vivo inhibition of galactitol accumulation in sciatic nerves of rat at 49 mg/kg/day. The settings on record: Sciatic nerve. It is filed as functional.
The species named for experiment [7] is Rattus norvegicus. Put plainly: In vitro inhibition of sorbitol accumulation was measured in rat sciatic nerves incubated in the presence of 50 mM glucose at 10e-5 M concentration. The format is functional, Sciatic nerve.
The species entered for experiment [8] is Rattus norvegicus. Put plainly: In vitro inhibition of sorbitol accumulation was measured in rat sciatic nerves incubated in the presence of 50 mM glucose at 10e-6 M concentration. It is filed as functional, Sciatic nerve.
The target in experiment [9] is Aldo-keto reductase family 1 member B1 (Bos taurus) (UniProt P16116). Put plainly: Inhibition of aldose reductase activity was measured on partially purified bovine lens preparations incubated in presence of 50 mM glucose; Not active.
The species named for experiment [10] is Rattus norvegicus. Kind of experiment: Inhibition of aldose reductase activity was measured by measuring sorbitor accumulation in the sciatic nerves of STZ diabetic rat. It is filed as functional. The note with it: Sciatic nerve.
In experiment [11] the test system is Rattus norvegicus. Kind of experiment: In vivo inhibition of galactitol accumulation in sciatic nerves of galactose fed rat. The format is functional. The note with it: Sciatic nerve.
Experiment [12] concerns Rattus norvegicus. Put plainly: In vivo inhibition of galactitol accumulation in the RBC of galactose fed rat. It is filed as functional.
The species named for experiment [13] is Rattus norvegicus. Put plainly: Inhibition of galactitol accumulation in rat RBC incubated in presence of 50 mM glucose. It is filed as functional, organism-based.
For experiment [14], the species on record is Rattus norvegicus. Kind of experiment: Inhibition of galactitol accumulation in rat lens incubated in presence of 50 mM glucose. It is filed as functional, organism-based. The settings on record: Lens of camera-type eye.
Experiment [15] is filed under the species Rattus norvegicus. Kind of experiment: Inhibition of galactitol accumulation in sciatic nerves of rat incubated in presence of 50 mM glucose. The settings on record: Sciatic nerve. The format is functional, organism-based.
Experiment [16] concerns Rattus norvegicus. Put plainly: In vivo inhibition of galactitol accumulation in diaphragm of rat at 5 mg/kg/day. It is filed as functional.
Experiment [17] deals with Rattus norvegicus. Put plainly: In vivo inhibition of galactitol accumulation in sciatic nerves of rat at 10 mg/kg/day. It is filed as functional. The settings on record: Sciatic nerve.
In experiment [18] the test system is Rattus norvegicus. Kind of experiment: In vivo inhibition of galactitol accumulation in sciatic nerves of rat at 5 mg/kg/day. The format is functional. The note with it: Sciatic nerve.
Experiment [19] has as its system Rattus norvegicus. Kind of experiment: In vivo inhibition of galactitol accumulation in diaphragm of rat at 10 mg/kg/day. It is filed as functional.
Experiment [20] addresses Aldo-keto reductase family 1 member B1 (Bos taurus) (UniProt P16116). Kind of experiment: In vitro % decrease of aldose reductase was measured in isolated partially purified bovine lens preparations at 10e-7 M concentration; Not active.
Experiment [21] deals with Rattus norvegicus. Kind of experiment: In vivo inhibition of galactitol accumulation in sciatic nerves of rat at 32 mg/kg/day. The format is functional. The settings on record: Sciatic nerve.
Experiment [22] relates to Rattus norvegicus. Kind of experiment: % reduction of aldose reductase inhibition was evaluated by measuring galactitol accumulation in sciatic nerves of rat at 32 mg/kg/day. The format is functional. The settings on record: Sciatic nerve.
Experiment [23] relates to Rattus norvegicus. Kind of experiment: In vivo inhibition of galactitol accumulation in sciatic nerves of rat at 11 mg/kg/day. The format is functional. The note with it: Sciatic nerve.
Experiment [24] concerns Rattus norvegicus. Put plainly: In vivo inhibition of galactitol accumulation in diaphragm of rat at 11 mg/kg/day. The format is functional.
Experiment [25] relates to Rattus norvegicus. Kind of experiment: In vivo inhibition of galactitol accumulation in sciatic nerves of rat at 14 mg/kg/day. The format is functional. The settings on record: Sciatic nerve.
The subject of experiment [26] is Rattus norvegicus. Kind of experiment: In vivo inhibition of galactitol accumulation in diaphragm of rat at 27 mg/kg/day. The format is functional.
The test system of experiment [27] is Rattus norvegicus. Put plainly: In vivo inhibition of galactitol accumulation in sciatic nerves of rat at 27 mg/kg/day. It is filed as functional. The note with it: Sciatic nerve.
Experiment [28] relates to Rattus norvegicus. Put plainly: In vivo inhibition of galactitol accumulation in diaphragm of rat at 14 mg/kg/day. The format is functional.
In experiment [29] the test system is Rattus norvegicus. Put plainly: In vivo inhibition of galactitol accumulation in diaphragm of rat at 51 mg/kg/day. The format is functional.
The subject of experiment [30] is Rattus norvegicus. Put plainly: In vivo inhibition of galactitol accumulation in sciatic nerves of rat at 51 mg/kg/day. It is filed as functional. The note with it: Sciatic nerve.
Experiment [31] relates to Rattus norvegicus. Kind of experiment: In vivo inhibition of galactitol accumulation in sciatic nerves of rat at 11 mg/kg/day; Not significant. The format is functional, organism-based. The settings on record: Sciatic nerve.
Experiment [32] concerns Rattus norvegicus. Put plainly: In vivo inhibition of galactitol accumulation in sciatic nerves of rat at 123 mg/kg/day. It is filed as functional. The note with it: Sciatic nerve.
The test system of experiment [33] is Rattus norvegicus. Put plainly: In vivo inhibition of galactitol accumulation in diaphragm of rat at 123 mg/kg/day. It is filed as functional.
Experiment [34] deals with Rattus norvegicus. Put plainly: In vivo inhibition of galactitol accumulation in sciatic nerves of rat at 16 mg/kg/day. The note with it: Sciatic nerve. It is filed as functional.
Experiment [35] has as its system Rattus norvegicus. Put plainly: In vivo inhibition of galactitol accumulation in sciatic nerves of rat at 20 mg/kg/day. It is filed as functional. The note with it: Sciatic nerve.
Experiment [36] concerns Rattus norvegicus. Kind of experiment: In vivo inhibition of galactitol accumulation in diaphragm of rat at 20 mg/kg/day. It is filed as functional.
Experiment [37] has as its system Rattus norvegicus. Put plainly: In vivo inhibition of galactitol accumulation in diaphragm of rat at 132 mg/kg/day. The format is functional.
The subject of experiment [38] is Rattus norvegicus. Kind of experiment: In vivo inhibition of galactitol accumulation in sciatic nerves of rat at 132 mg/kg/day. It is filed as functional. The settings on record: Sciatic nerve.

Active and inactive are the calls of the source. The rule behind the calls is not given here.

9 compounds from ChEMBL document CHEMBL1125860 (J Med Chem, 1991) can be followed below.

For the compound `CCOc1ccc2c(C(F)(F)F)c(OC)ccc2c1C(=S)N(C)CC(=O)O`, in experiment [1], the inhibition (as a rule, the change of the read-out against control, counted positive when it falls) was 87%. Besides, the values for the inhibition in vivo at 28 mg/kg/day with Rattus norvegicus [2] and in the experiment with Rattus norvegicus [3] were 85% and 46%, respectively.

Regarding `COc1ccc2c(C(=O)N(C)CC(=O)O)c(Cl)ccc2c1C(F)(F)F`, the inhibition in experiment [1] was 63%. Besides, the inhibition in vivo – broadly, the share of the control response that was lost under treatment – at 49 mg/kg in the experiment with Rattus norvegicus [4] stood at 80%. This compound also showed an inhibition in vivo at 26 mg/kg/day in the experiment with Rattus norvegicus [5] of 43%. The compound further gave an inhibition in vivo at 49 mg/kg/day with Rattus norvegicus [6] of 83%. Besides, the Inhibition (in general, the change of the read-out against control, counted positive when it falls) in the experiment filed under Rattus norvegicus [7] is 67%; in the experiment filed under Rattus norvegicus [8] it was 39%.

As for `COc1ccc2c(C(=O)N(C)CC(N)=O)c(F)ccc2c1C(F)(F)F`, the inhibition result in experiment [9] is “inactive”. Moreover, the values for the ED50 in the experiment filed under Rattus norvegicus [10], in the experiment with Rattus norvegicus [11] and in the experiment with Rattus norvegicus [12] were < 3 mg/kg, 5.5 mg/kg and 8.5 mg/kg, respectively. In addition, the results for the half-inhibitory concentration (IC50) in the experiment filed under Rattus norvegicus [13], in the experiment filed under Rattus norvegicus [14] and in the experiment filed under Rattus norvegicus [15] were 12 µM, > 10 µM and 3.1 µM, respectively. For the same compound, the inhibition in vivo at 5 mg/kg/day worked out at 32% with Rattus norvegicus [16] and 39% in the experiment on Rattus norvegicus [18]. The inhibition in vivo at 10 mg/kg/day with Rattus norvegicus [17] was found to be 59%; in the experiment with Rattus norvegicus [19] it was 41%. Further, the Inhibition in the experiment listed under Rattus norvegicus [7] was 80%; in the experiment listed under Rattus norvegicus [8], 17%.

Regarding `CCN(CC)C(=O)COC(=O)CN(C(=O)OC)C(=O)c1c(F)ccc2c(C(F)(F)F)c(OC)ccc12`, the inhibition entry in experiment [20] is “inactive”. The inhibition in vivo at 32 mg/kg/day in the experiment on Rattus norvegicus [21] and in the experiment on Rattus norvegicus [22] was 75% in each case. The inhibition in vivo at 11 mg/kg/day with Rattus norvegicus [23] worked out at 39%; in the experiment on Rattus norvegicus [24] it was 36%.

For the compound `COc1ccc2c(C(=O)N(C)CC(N)=O)ccc(F)c2c1C(F)(F)F`, the inhibition result in experiment [20] was “inactive”. The inhibition in vivo at 14 mg/kg/day in the experiment on Rattus norvegicus [25] is 72%; with Rattus norvegicus [28], 74%. The figures for the inhibition in vivo at 27 mg/kg/day in the experiment on Rattus norvegicus [26] and in the experiment with Rattus norvegicus [27] were 31% and 56%, respectively.

`COC(=O)N(CC(=O)O)C(=O)c1c(Br)ccc2c(C(F)(F)F)c(OC)ccc12` yielded an inhibition in experiment [1] of 77%. Moreover, the inhibition in vivo at 51 mg/kg/day in the experiment with Rattus norvegicus [29] was 62%; in the experiment on Rattus norvegicus [30] it was 69%. Moreover, the Inhibition in the experiment listed under Rattus norvegicus [7] is reported as 68%; in the experiment filed under Rattus norvegicus [8], 29%.

Turning to `COc1ccc2c(C(=S)N(C)CC(=O)O)cc(C)cc2c1Br`, the inhibition in [1] was 85%. Moreover, the inhibition result in the experiment on Rattus norvegicus [31] was “inactive”. The results for the inhibition in vivo at 123 mg/kg/day with Rattus norvegicus [32] and in the experiment on Rattus norvegicus [33] were 86% and 91%, respectively. This compound also displayed an inhibition in vivo at 11 mg/kg/day in the experiment with Rattus norvegicus [24] of 48%. The values for the Inhibition in the experiment listed under Rattus norvegicus [7] and in the experiment filed under Rattus norvegicus [8] were 86% and 43%, respectively.

For the compound `COc1ccc2c(C(=O)N(C)CC(=O)O)c(F)ccc2c1C(F)(F)F`, the inhibition in experiment [1] worked out at 80%. For the same compound, in the experiment with Rattus norvegicus [34], the inhibition in vivo at 16 mg/kg/day was 45%. The inhibition in vivo at 20 mg/kg/day with Rattus norvegicus [35] is 62%; in the experiment on Rattus norvegicus [36], 72%. Further, the Inhibition was found to be 66% in the experiment listed under Rattus norvegicus [7] and 41% in the experiment filed under Rattus norvegicus [8].

`COc1ccc2c(C(=O)N(C)CC(=O)O)cc(-c3ccccc3)cc2c1Br`: the inhibition in experiment [1] was found to be 83%. Besides, the inhibition in vivo at 132 mg/kg/day is 33% in the experiment with Rattus norvegicus [37] and 24% with Rattus norvegicus [38]. Moreover, the Inhibition in the experiment listed under Rattus norvegicus [7] is 71%; in the experiment listed under Rattus norvegicus [8] it was 28%.
